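Briefly, cells in 96-well plates were exposed to five compound concentrations for 48 h, and endpoints were estimated by linear interpolation. At the GI50, growth is halved. TGI is the concentration that stops growth completely.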 Where only a bound is given, the exact number is not on record here.

Assay in all cases: NCI-60 cell line screen, 48 h
For assay [1], the system named is CAKI-1 renal.
Assay [2] deals with SF-268 CNS.
The subject of assay [3] is IGROV1 ovarian.
Assay [4] has as its system RPMI-8226 leukemia.
The test system of assay [5] is OVCAR-8 ovarian.
Assay [6] deals with COLO 205 colon.
The test system of assay [7] is TK-10 renal.
The subject of assay [8] is SK-OV-3 ovarian.
For assay [9], the system named is NCI/ADR-RES ovarian.
The subject of assay [10] is HS 578T breast.

Regarding `COc1ccc2nc3cc(Cl)ccc3c(SCC(=O)Nc3ccccc3-c3ccccc3NC(=O)CSc3c4ccc(Cl)cc4nc4ccc(OC)cc34)c2c1`, the TGI in [1], in assay [2], in assay [3], in assay [4], in [5] and in assay [6] was over 100 µM in each case. Also, the TGI in assay [7] and in [8] was over 100 µM each time.

As to `CC1(C)CC2CC(CC(C)(C)C2=O)C1=O`, the TGI in assay [1], in assay [2], in assay [3], in assay [4], in assay [5] and in assay [6] was over 100 µM throughout. In addition, the TGI in [7] and in assay [8] was over 100 µM each time.

In the case of `COc1cccc(NC(=O)CC(=O)N2N=C(N3c4ccccc4Sc4ccccc43)CC2c2ccccc2)c1` (stereo unspecified), the TGI in assay [1], in assay [2], in [3], in assay [4], in assay [5] and in [6] was over 100 µM throughout. The TGI in [7] and in [8] was over 100 µM throughout.

In the case of `CN(C)C(=O)c1cnc2oc3ccc(O)cc3c2c1-c1ccccc1`, the GI50 is over 25 µM in [1]; 20.2 µM in [2]; over 25 µM in [3]; over 25 µM in [4]; over 25 µM in [5]; over 25 µM in assay [9]. The GI50 in assay [7] is over 25 µM; in assay [8], 24.6 µM. The TGI in [1], in assay [2], in assay [3], in assay [4], in assay [5] and in assay [9] was over 25 µM throughout. Also, the TGI in assay [7] and in [8] was over 25 µM in each case.

With `O=C(N/C(=C\c1ccc(/C=C(\NC(=O)c2ccccc2)c2nc3ccccc3[nH]2)cc1)c1nc2ccccc2[nH]1)c1ccccc1`, the TGI in assay [1], in assay [2], in assay [3], in [4], in assay [5] and in assay [6] was over 100 µM throughout. For the same molecule, the TGI in assay [7] and in assay [8] was over 100 µM each time.

As to `COc1cc2c(cc1OC)[C@@H](Nc1ccc(F)cc1)C1COC(=O)[C@@H]1C2c1cc(OC)c(O)c(OC)c1` (stereo partly specified), the TGI in assay [1] was 3.76 µM; in assay [2] it was over 67.1 µM; in assay [3] it was over 100 µM; in assay [4] it was 2.45 µM; in assay [5] it was over 38.8 µM; in assay [6] it was 33.3 µM. The figures for the TGI in assay [7] and in assay [8] were 63 µM and 7 µM, respectively.

For the molecule `CCc1cccc(C)c1NC(=O)C1=C(C)NC(C)=C(C(=O)Nc2c(C)cccc2CC)C1c1ccc2c(c1)OCO2`, the TGI in assay [1] is 39.4 µM; in assay [2] it was 59.5 µM; in assay [3] it was 78.6 µM; in [4], 47.2 µM; in [5], over 100 µM; in [6] it was 38.6 µM. Moreover, the TGI in assay [7] amounted to 80.1 µM; in [8], 92.5 µM.

For the molecule `Cc1[nH]c2ccc(F)cc2c1-c1nc2c3cccnc3c3ncccc3c2[nH]1`, the GI50 is 0.358 µM in assay [1]; 0.205 µM in [2]; 0.374 µM in [3]; 3.43 µM in assay [4]; 0.345 µM in assay [5]; 0.147 µM in [6]. For the same molecule, the GI50 in assay [7] was 0.46 µM; in assay [8], 0.35 µM. Besides, the TGI in [1], in assay [2], in [3], in [4], in [5] and in assay [7] was over 100 µM throughout. Also, in assay [8], the TGI was over 100 µM.

As to `Cc1ccc(-c2nc3nc(-c4ccccc4)nc(N4CCNCC4)c3o2)cc1`, the GI50 was 1.53 µM in [1]; 1.75 µM in assay [2]; 0.577 µM in assay [3]; 0.232 µM in assay [4]; 0.366 µM in [5]; 0.208 µM in assay [6]. In addition, the figures for the GI50 in [9], in [7] and in [8] were 0.776 µM, 0.747 µM and 1.9 µM, respectively. Moreover, the TGI came out at 2.95 µM in assay [1]; 4.02 µM in assay [2]; 1.41 µM in [3]; 0.571 µM in assay [4]; 1.19 µM in assay [5]; 0.423 µM in assay [6]. The TGI in assay [9] turned out to be 2.21 µM; in [7] it was 1.71 µM; in assay [8] it was 3.42 µM.

`CCCN(CCC)C(=O)C(=O)c1c(N)[nH]n(-c2ccccc2)c1=O`: the TGI in [1], in [2], in assay [3], in [4], in [5] and in assay [6] was over 100 µM throughout. For the same molecule, the TGI in [7] and in assay [8] was over 100 µM in each case.

Take `COc1ccc(COC2CC(OC)OC(C)C2OC(=O)c2ccccc2)cc1` (stereo unspecified): the TGI is over 100 µM in assay [1]; over 100 µM in [2]; over 100 µM in [3]; 46.7 µM in [4]; over 100 µM in assay [5]; over 95 µM in assay [6]. Moreover, the TGI in assay [7] and in assay [8] was over 100 µM in each case.

Regarding `CNC(=O)OCc1c2ccncc2c(C)c2c1[nH]c1ccc(OC)cc12`, the TGI was over 100 µM in assay [1]; 0.79 µM in [2]; 4.56 µM in assay [3]; 0.668 µM in [4]; over 100 µM in [5]; 2.11 µM in assay [6]. The figures for the TGI in [7] and in assay [8] were over 100 µM and 0.866 µM, respectively.

Regarding `COc1cccc(NC(=O)CC(=O)N2N=C(n3ccc4ccccc43)CC2c2ccccc2)c1` (stereo unspecified), the TGI in assay [2], in assay [3], in assay [4], in [5], in [6] and in assay [7] was over 100 µM each time. In assay [8], the TGI is over 100 µM.

For `CCOc1ccc(NC(=O)C(=O)C(C(=O)c2ccc3ccccc3c2)C2OC(=O)c3ccccc32)cc1` (stereo unspecified), the TGI is over 100 µM in assay [1]; 62.4 µM in assay [2]; 52.5 µM in assay [3]; 38.4 µM in assay [4]; over 100 µM in assay [5]; 41.7 µM in assay [6]. Also, the TGI in assay [7] and in assay [8] was over 100 µM throughout.

Consider `C[C@]12CCC(=O)CC1CCCC2=O` (stereo partly specified), for which the TGI in assay [1], in [2], in [3], in assay [4], in [5] and in [6] was over 100 µM throughout. The TGI in [7] and in assay [8] was over 100 µM each time.

On to `Cn1cc(-c2csc(-c3cn(CCCN4CCCCC4)c4ccccc34)n2)c2cccnc21`, for which the GI50 in assay [10] was 2.55 µM; in [2], 1.72 µM; in assay [3] it was 1.61 µM; in assay [6], 1.82 µM; in assay [7], 1.6 µM; in assay [8], 19.3 µM. Moreover, the TGI worked out at 6.26 µM in assay [10]; 3.41 µM in assay [2]; 3.35 µM in assay [3]; 3.61 µM in assay [6]; 2.96 µM in assay [7]; 42.7 µM in assay [8].

As to `CC(=O)[CH-]C(=O)c1ccccc1.CC(=O)[CH-]C(=O)c1ccccc1.CC(=O)[CH-]C(=O)c1ccccc1.[In+3]`, the GI50 is 99.7 µM in [1]; 19.9 µM in assay [2]; 91.4 µM in [3]; 19.2 µM in assay [4]; 24.9 µM in [5]; 31.9 µM in assay [6]. The GI50 is over 100 µM in [7] and 29.2 µM in assay [8]. The TGI in [1] is over 100 µM; in assay [2] it was over 100 µM; in assay [3], over 100 µM; in assay [4], 64.4 µM; in assay [5], over 100 µM; in [6] it was 85.4 µM. Besides, the values for the TGI in [7] and in [8] were over 100 µM and 70.9 µM, respectively.

In the case of `C[CH2][Sn]([CH2]C)([O]C(=O)c1ccccc1F)[O][Sn]([CH2]C)([CH2]C)[O]C(=O)c1ccccc1F`, the GI50 is 14.2 µM in [1]; 23.2 µM in assay [2]; over 87.8 µM in assay [3]; 20.9 µM in assay [4]; over 62 µM in assay [5]; 25.6 µM in assay [6]. Also, the GI50 in assay [7] was 18 µM; in assay [8], over 50.5 µM. Also, the TGI in assay [1] is 27.7 µM; in assay [2], 50.7 µM; in assay [3], over 100 µM; in [4], over 100 µM; in assay [5], over 100 µM; in assay [6], over 57.9 µM. For the same molecule, the TGI in assay [7] is 32.1 µM; in assay [8], over 90.3 µM.

For `CCOC(=O)/C(O)=C(/C(=O)OC)c1ccc(Cl)cc1`, the TGI in assay [1], in assay [2], in assay [3], in [4], in [5] and in assay [6] was over 100 µM throughout. In addition, the TGI in assay [7] and in assay [8] was over 100 µM throughout.

For `CCN(CC)c1oc(N(CC)CC)c(C(=O)Nc2ccccn2)c(=O)c1C(C)=O`, the TGI in assay [1], in [2], in assay [3], in assay [4], in assay [5] and in assay [6] was over 100 µM in each case. Further, the TGI in assay [7] and in assay [8] was over 100 µM throughout.

As to `CN(C)C(=O)c1ccc([N+](=O)[O-])cc1`, the TGI in assay [1], in [2], in assay [3], in assay [5], in assay [6] and in assay [7] was over 100 µM each time. Besides, the TGI in assay [8] is over 100 µM.

As to `COc1ccc(CC2(Cc3ccc(OC)cc3)CCOC2=O)cc1`, the TGI in [1], in [2], in assay [3], in [4], in assay [5] and in assay [6] was over 100 µM throughout. For the same molecule, the TGI in [7] and in assay [8] was over 100 µM throughout.

On to `CC(=O)O[C@H]1CCC2[C@@H]3CCC4c5nonc5CC[C@]4(C)C3CC[C@@]21C` (stereo partly specified), for which the TGI was over 10 µM in assay [1]; over 10 µM in assay [2]; over 100 µM in [3]; over 10 µM in [5]; over 10 µM in [6]; over 10 µM in assay [7]. In [8], this molecule returned a TGI of over 10 µM. For the same molecule, the GI50 in assay [3] is over 100 µM.

For `COC(=O)C(CC1=C(O)Nc2ccccc2N1)/C(=N/NC(N)=O)C(=O)Nc1ccccc1C` (stereo unspecified), the TGI in [1] was over 100 µM; in assay [2] it was 45.2 µM; in [3] it was over 100 µM; in [4], 48.4 µM; in assay [5], over 100 µM; in assay [6] it was over 100 µM. Moreover, the TGI in [7] and in assay [8] was over 100 µM each time.

With `COc1cnc2c(c1)C(=O)c1c-2n(CCCNC2=NCCS2)c(=O)c2cc(Cl)ccc12`, the GI50 was 0.0444 µM in assay [1]; 0.088 µM in assay [2]; 1.07 µM in assay [4]; 1.06 µM in assay [6]; 1.66 µM in assay [7]; 0.316 µM in assay [8]. Also, the TGI in assay [1] worked out at 1.6 µM; in [2] it was 2.06 µM; in assay [4], 4.89 µM; in assay [6] it was 2.41 µM; in [7], 3.09 µM; in assay [8] it was 1.64 µM.

In the case of `CCc1ccccc1NC(=O)/C(N=O)=C(/C)O`, the TGI in assay [1], in [2], in [3], in assay [4], in assay [5] and in [6] was over 100 µM each time. Moreover, the TGI in assay [7] and in assay [8] was over 100 µM in each case.

With `O=C(NC(=Nc1ccccc1)SCCSC(=Nc1ccccc1)NC(=O)c1cccs1)c1cccs1`, the TGI in [1], in [3], in [4], in [5], in assay [6] and in assay [7] was over 100 µM in each case.

Source of the values: PubChem BioAssay (NCI).
